# Measured values reported in PubChem BioAssay AID2060483 (Molecular Pharmacology Branch, DTP, NCI, 2025).
# Tested on: K24384-001-R-PDC complex spheroids, viability
# Test: Anticancer human tumor K24384-001-R-PDC patient-derived pancreatic adenocarcinoma cell line growth inhibition [GQUAD]
# Conditions: for IC50: curve of first compound; for viability, T/C: stronger effect = lower value
# Excerpt: DNA G-quadruplex Stabilizer Agents in Combinations in Complex Spheroids
# A high-throughput screen of multi-cell type tumor spheroids was designed to identify active combinations of DNA G-quadruplex stabilizer agents and targeted small molecules. Complex spheroids include a stromal component modeled by human endothelial cells (HUVEC) and fibroblasts modeled by human mesenchymal stem cells (MSCs). The concentration ranges selected for each drug and investigational agent were based upon clinically achievable concentrations if the clinical Cmax of the agent was known.
# Compounds. The drugs and investigational agents: pidnarulex (CX-5461; NSC782164), APTO-253 (NSC789042), BRACO-19 (NSC847499), peposertib (NSC802822), ceralasertib (NSC780249), elimusertib (NSC800525), camonsertib (NSC841442), AZD-1390 (NSC803789), olaparib (NSC753686), talazoparib (NSC767125), ART-558 (NSC835418), sotorasib (NSC818433), MRTX-1133 (NSC836407), SN-38 (NSC673596), topotecan (NSC609699), etoposide (NSC141540), doxorubicin (NSC123127), gemcitabine (NSC613327), 5-fluorouracil (NSC19893), paclitaxel (NSC125973), vemurafenib (NSC761431), panobinostat (NSC761190), R-306465 (JNJ-16241199; NSC773264), adavosertib (NSC754352), TP-3654 (NSC805149), carboplatin (NSC241240), KSQ-4279 (NSC840948), and staurosporine (NSC755774) were obtained from the National Cancer Institute (NCI) Developmental Therapeutics Program Chemical Repository (34). The FDA-approved anticancer drug set is available from the NCI Developmental Therapeutics Program. […] The stock solutions were prepared in dimethyl sulfoxide (DMSO, Sigma-Aldrich, St. Louis, MO, cat. D2650) at 800-fold the tested concentration and stored at -70 degrees C prior to their use. All drugs and investigational agents were tested over a range starting from a high concentration at or near the clinical Cmax and decreasing in half-log increments. If the clinical Cmax for an agent had not been determined, the highest concentration tested was 10 microM.
# 2.3 Cell Culture. All cells were maintained in an incubator at 37 degrees C and 5% CO2 with 95% humidity. The PDC lines were cultured according to standard operating procedures established by the NCI PDMR. All PDCs were thawed and cultured in Matrigel-coated flasks prepared with a working solution of 1X Ham's F-12 nutrient mix, without supplementation (Invitrogen, cat. 11765054), 100 U/mL penicillin-streptomycin (Invitrogen, cat. 15140122), and 2.5% Matrigel (Corning Inc., cat. 354248) for the first three passages. The 857933-349-R-J2-PDC line was cultured in 6C/Colon 1B media, which includes advanced DMEM/F-12 (Thermo Fisher Scientific, cat. 12634028), 10 mM HEPES (Thermo Fisher Scientific, cat. 15630080), 1X GlutaMAX supplement (Thermo Fisher Scientific, cat. 35050061), 0.1 mg/mL primocin (InvivoGen, cat. ant-pm-2), 10% defined fetal bovine serum, heat inactivated (HyClone Laboratories Inc., cat. SH30070.03HI), 50% L-WRN conditioned media (ATCC, cat. CRL-3276), 1.25 mM N-Acetyl-L-cysteine (Sigma-Aldrich, cat. A9165), 10 mM nicotinamide (Sigma-Aldrich, cat. N0636), 1X B-27 supplement (Thermo Fisher Scientific, cat. 17504044), 1X N-2 supplement (Thermo Fisher Scientific, cat. 17502048), 10 microM Y-27632 dihydrochloride (Tocris Bioscience, cat. 1254), and 50 ng/mL human EGF recombinant protein (Thermo Fisher Scientific, cat. PHG0311). The 485176-168-R4-J1-PDC line was cultured in Panc media, which includes all 6C/Colon 1B media components plus 100 ng/mL human FGF-10 (Thermo Fisher Scientific, cat. 100-26), 500 nM SB-431542 (Selleckchem, cat. S1067), and gastrin (Tocris, cat. 3006).
# […]
# [1] = second compound 0.0316 µM, first compound 0.0316 µM
# [2] = second compound 0.0316 µM, first compound 0.1 µM
# [3] = second compound 0.0316 µM, first compound 0.316 µM
# [4] = second compound 0.0316 µM, first compound 1 µM
# [5] = second compound 0.0316 µM, first compound 3.16 µM
# [6] = second compound 0.0316 µM, first compound 10 µM
# [7] = second compound 0.1 µM, first compound 0.0316 µM
# [8] = second compound 0.1 µM, first compound 0.1 µM
# [9] = second compound 0.1 µM, first compound 0.316 µM
# [10] = second compound 0.1 µM, first compound 1 µM
# [11] = second compound 0.1 µM, first compound 3.16 µM
# [12] = second compound 0.1 µM, first compound 10 µM
# [13] = second compound 0.316 µM, first compound 0.0316 µM
# [14] = second compound 0.316 µM, first compound 0.1 µM
# [15] = second compound 0.316 µM, first compound 0.316 µM
# [16] = second compound 0.316 µM, first compound 1 µM
# [17] = second compound 0.316 µM, first compound 3.16 µM
# [18] = second compound 0.316 µM, first compound 10 µM
# [19] = second compound 1 µM, first compound 0.0316 µM
# [20] = second compound 1 µM, first compound 0.1 µM
# [21] = second compound 1 µM, first compound 0.316 µM
# [22] = second compound 1 µM, first compound 1 µM
# [23] = second compound 1 µM, first compound 3.16 µM
# [24] = second compound 1 µM, first compound 10 µM
# [25] = second compound 3.16 µM, first compound 0.0316 µM
# [26] = second compound 3.16 µM, first compound 0.1 µM
# [27] = second compound 3.16 µM, first compound 0.316 µM
# [28] = second compound 3.16 µM, first compound 1 µM
# [29] = second compound 3.16 µM, first compound 3.16 µM
# [30] = second compound 3.16 µM, first compound 10 µM
# [31] = second compound 10 µM, first compound 0.0316 µM
# [32] = second compound 10 µM, first compound 0.1 µM
# [33] = second compound 10 µM, first compound 0.316 µM
# [34] = second compound 10 µM, first compound 1 µM
# [35] = second compound 10 µM, first compound 3.16 µM
# [36] = second compound 10 µM, first compound 10 µM
# 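Note: spheroids exposed to compounds for seven days.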
structure (smiles),measurement,setting,value
CC1COCCN1c1cc(-c2ccnn2C)c2ccnc(-c3ccn[nH]3)c2n1 (centres undefined) + Cc1[nH]c2ccc(F)cc2c1-c1nc2c3cccnc3c3ncccc3c2[nH]1,IC50,second compound 0.0316 µM,215 nM
same,IC50,second compound 0.1 µM,242 nM
same,IC50,second compound 0.316 µM,219 nM
same,IC50,second compound 1 µM,178 nM
same,IC50,second compound 3.16 µM,57.6 nM
same,IC50,second compound 10 µM,51.1 nM
same,"viability, T/C",[1],84.6%
same,"viability, T/C",[2],63.7%
same,"viability, T/C",[3],45.1%
same,"viability, T/C",[4],28.7%
same,"viability, T/C",[5],44.8%
same,"viability, T/C",[6],31.8%
same,"viability, T/C",[7],68.7%
same,"viability, T/C",[8],68.9%
same,"viability, T/C",[9],44.3%
same,"viability, T/C",[10],31.1%
same,"viability, T/C",[11],45%
same,"viability, T/C",[12],36.5%
same,"viability, T/C",[13],71.4%
same,"viability, T/C",[14],76.5%
same,"viability, T/C",[15],38.7%
same,"viability, T/C",[16],33.5%
same,"viability, T/C",[17],39.8%
same,"viability, T/C",[18],38.2%
same,"viability, T/C",[19],62.1%
same,"viability, T/C",[20],64.6%
same,"viability, T/C",[21],29.5%
same,"viability, T/C",[22],41.5%
same,"viability, T/C",[23],39.6%
same,"viability, T/C",[24],36.3%
same,"viability, T/C",[25],55.5%
same,"viability, T/C",[26],48.1%
same,"viability, T/C",[27],31.4%
same,"viability, T/C",[28],41%
same,"viability, T/C",[29],29.3%
same,"viability, T/C",[30],35.7%
same,"viability, T/C",[31],57.4%
same,"viability, T/C",[32],39.9%
same,"viability, T/C",[33],30.3%
same,"viability, T/C",[34],31.5%
same,"viability, T/C",[35],24.1%
same,"viability, T/C",[36],28.9%
Cc1cccc(N(C)C(=O)C2C(O)CCN2c2nc(C)cc(C(F)(F)F)c2C#N)c1 (centres undefined) + Cc1[nH]c2ccc(F)cc2c1-c1nc2c3cccnc3c3ncccc3c2[nH]1,IC50,second compound 0.0316 µM,> 10000 nM
same,IC50,second compound 0.1 µM,> 10000 nM
same,IC50,second compound 0.316 µM,> 10000 nM
same,IC50,second compound 1 µM,> 10000 nM
same,IC50,second compound 3.16 µM,> 10000 nM
same,IC50,second compound 10 µM,> 10000 nM
same,"viability, T/C",[1],98.2%
same,"viability, T/C",[2],90.9%
same,"viability, T/C",[3],105%
same,"viability, T/C",[4],95.2%
same,"viability, T/C",[5],116%
same,"viability, T/C",[6],117%
same,"viability, T/C",[7],95.3%
same,"viability, T/C",[8],102%
same,"viability, T/C",[9],103%
same,"viability, T/C",[10],100%
same,"viability, T/C",[11],131%
same,"viability, T/C",[12],118%
same,"viability, T/C",[13],81.5%
same,"viability, T/C",[14],103%
same,"viability, T/C",[15],107%
same,"viability, T/C",[16],104%
same,"viability, T/C",[17],105%
same,"viability, T/C",[18],128%
same,"viability, T/C",[19],85.4%
same,"viability, T/C",[20],91.2%
same,"viability, T/C",[21],87.9%
same,"viability, T/C",[22],99%
same,"viability, T/C",[23],114%
same,"viability, T/C",[24],93.4%
same,"viability, T/C",[25],83.1%
same,"viability, T/C",[26],75%
same,"viability, T/C",[27],77.4%
same,"viability, T/C",[28],85%
same,"viability, T/C",[29],83.7%
same,"viability, T/C",[30],71.8%
same,"viability, T/C",[31],74.4%
same,"viability, T/C",[32],85.5%
same,"viability, T/C",[33],74.4%
same,"viability, T/C",[34],85.6%
same,"viability, T/C",[35],67.9%
same,"viability, T/C",[36],75.5%
